Data on six compounds can be found in ChEMBL document CHEMBL4373748, “Reinvestigation of Mycothiazole Reveals the Penta-2,4-dien-1-ol Residue Imparts Picomolar Potency and 8S Configuration” (ACS Med Chem Lett, 2020).

For one series, the system named is PANC-1. Briefly: Cytotoxicity against human PANC1 cells assessed as reduction in cell viability incubated for 3 days by tryphan blue dye based assay. It counts as functional. Conditions: PANC-1, 72 h.
The next series has as its system HCT-116. Briefly: Cytotoxicity against human HCT116 cells assessed as reduction in cell viability incubated for 3 days by tryphan blue dye based assay. It counts as functional. Conditions: HCT-116, 72 h.
The next series has as its system HepG2. Briefly: Cytotoxicity against human HepG2 cells assessed as reduction in cell viability incubated for 3 days by tryphan blue dye based assay. The format is functional. Conditions: HepG2, 72 h.
A short description of series [1]: Drug degradation assessed as methyl N-[(E)-8-[4-[(2E)-hexa-2,5-dienyl]-1,3-thiazol-2-yl]-3,7-dihydroxy-3-(hydroxymethyl)-8-methylnon-4-enyl]carbamate metabolite formation by measuring maximum absorbance units measured after preserving compound in amber vial containing 95% CH3CN and 5% H2O followed by drying using N2 stream and later punged-with argon in dark desiccator under vacuum for 24 hrs by ultraviolet-photoiodide array detection method. It counts as physicochemical.

Series [2] in a line: Drug degradation assessed as methyl N-[(E)-8-[4-[(2E)-hexa-2,5-dienyl]-1,3-thiazol-2-yl]-3,7-dihydroxy-3-(hydroxymethyl)-8-methylnon-4-enyl]carbamate metabolite formation by measuring maximum absorbance units measured after preserving compound in amber vial containing methanol followed by drying using air stream for 24 hrs at room temperature by ultraviolet-photoiodide array detection method. The format is physicochemical.

A short description of series [3]: Drug degradation assessed as methyl N-[(E)-8-[4-[(2E)-hexa-2,5-dienyl]-1,3-thiazol-2-yl]-3,7-dihydroxy-3-(hydroxymethyl)-8-methylnon-4-enyl]carbamate metabolite formation by measuring maximum absorbance units measured after preserving compound in amber vial containing methanol followed by drying using N2 stream for 24 hrs at room temperature by ultraviolet-photoiodide array detection method. It counts as physicochemical.

A short description of series [4]: Drug degradation assessed as methyl N-[(E)-8-[4-[(2E)-hexa-2,5-dienyl]-1,3-thiazol-2-yl]-3,7-dihydroxy-3-(hydroxymethyl)-8-methylnon-4-enyl]carbamate metabolite formation by measuring maximum absorbance units measured after preserving compound in amber vial containing 95% CH3CN and 5% H2O followed by drying using N2 stream and later punged-with argon followed by exposure to 4 degC for 24 hrs by ultraviolet-photoiodide array detection method. The format is physicochemical.

Series [5] can be described thus: Drug degradation assessed as methyl N-[(E)-8-[4-[(2E)-hexa-2,5-dienyl]-1,3-thiazol-2-yl]-3,7-dihydroxy-3-(hydroxymethyl)-8-methylnon-4-enyl]carbamate metabolite formation by measuring maximum absorbance units measured after preserving compound in amber vial containing 95% CH3CN and 5% H2O followed by drying using N2 stream followed by exposure to direct light for 24 hrs by ultraviolet-photoiodide array detection method. It counts as physicochemical.

Series [6] can be described thus: Drug degradation assessed as methyl N-[(E)-8-[4-[(2E)-hexa-2,5-dienyl]-1,3-thiazol-2-yl]-3,7-dihydroxy-3-(hydroxymethyl)-8-methylnon-4-enyl]carbamate metabolite formation by relative abundance measured after preserving compound in amber vial containing 95% CH3CN and 5% H2O followed by drying using N2 stream and later punged-with argon in dark desiccator under vacuum for 24 hrs by LC-MS-TIC analysis. The format is physicochemical.

Series [7] can be described thus: Drug degradation assessed as methyl N-[(E)-8-[4-[(2E)-hexa-2,5-dienyl]-1,3-thiazol-2-yl]-3,7-dihydroxy-3-(hydroxymethyl)-8-methylnon-4-enyl]carbamate metabolite formation by measuring relative abundance measured after preserving compound in amber vial containing methanol followed by drying using air stream for 24 hrs at room temperature by LC-MS-TIC analysis. The format is physicochemical.

Series [8] can be described thus: Drug degradation assessed as methyl N-[(E)-8-[4-[(2E)-hexa-2,5-dienyl]-1,3-thiazol-2-yl]-3,7-dihydroxy-3-(hydroxymethyl)-8-methylnon-4-enyl]carbamate metabolite formation by measuring relative abundance measured after preserving compound in amber vial containing methanol followed by drying using N2 stream for 24 hrs at room temperature by LC-MS-TIC analysis. The format is physicochemical.

Series [9] in a line: Drug degradation assessed as methyl N-[(E)-8-[4-[(2E)-hexa-2,5-dienyl]-1,3-thiazol-2-yl]-3,7-dihydroxy-3-(hydroxymethyl)-8-methylnon-4-enyl]carbamate metabolite formation by measuring relative abundance measured after preserving compound in amber vial containing 95% CH3CN and 5% H2O followed by drying using N2 stream and later punged-with argon followed by exposure to 4 degC for 24 hrs by LC-MS-TIC analysis. The format is physicochemical.

Series [10] can be described thus: Drug degradation assessed as methyl N-[(E)-8-[4-[(2E)-hexa-2,5-dienyl]-1,3-thiazol-2-yl]-3,7-dihydroxy-3-(hydroxymethyl)-8-methylnon-4-enyl]carbamate metabolite formation by measuring relative abundance measured after preserving compound in amber vial containing 95% CH3CN and 5% H2O followed by drying using N2 stream followed by exposure to direct light for 24 hrs by LC-MS-TIC analysis. It counts as physicochemical.

A short description of series [11]: Stability of compound assessed as shelf life measured after preserving compound in amber vial containing 95% CH3CN and 5% H2O followed by drying using N2 stream and later punged-with argon in dark desiccator under vacuum for 24 hrs. The format is physicochemical.
A short description of series [12]: Stability of compound assessed as shelf life measured after preserving compound in amber vial containing 95% CH3CN and 5% H2O followed by drying using N2 stream and later punged-with argon followed by exposure to 4 degC for 24 hrs. The format is physicochemical.
Series [13] can be described thus: Stability of compound in benzene-d6 by 1H-NMR analysis. The format is physicochemical.

In the case of `C=CC/C=C\Cc1csc(C(C)(C)[C@H](O)CC2C=C(CCNC(=O)OC)CON2c2ccccc2)n1` (stereo partly specified), the 50% inhibitory concentration (IC50) with PANC-1 is > 1000 nM.

Consider `C=CC/C=C\Cc1csc(C(C)(C)[C@H](O)C/C=C/C(O)(CO)CCNC(=O)OC)n1` (stereo partly specified), for which the half-inhibitory concentration (IC50) with HCT-116 was > 1000 nM.

As to `C=CC/C=C/Cc1csc(C(C)(C)[C@H](O)C/C=C\C(=C)CCNC(=O)OC)n1`, the half-inhibitory concentration (IC50) in the series with PANC-1 was found to be 0.16 nM; in the series on HepG2, 0.27 nM; in the series on HCT-116, 0.35 nM. Also, the Drug degradation came to 500000 a.u in [1]; 500000 a.u in series [2]; 500000 a.u in series [3]; 500000 a.u in series [4]; 280000 a.u in series [5]; 20% in series [6]. Also, the Drug degradation is on record as 45% in [7], 45% in series [8], 20% in [9] and 60% in series [10]. Moreover, the Stability in series [11] and in series [12] was 3 to 6 weeks throughout.

As for `C=CC/C=C/Cc1csc(C(C)(C)[C@@H](C/C=C\C(=C)CCNC(=O)OC)OC(C)=O)n1`, in the series on PANC-1, the IC50 was determined as 1.3 nM. The Stability result in series [13] is recorded as “>= 6 months”.

Regarding `C=CC/C=C\Cc1csc(C(C)(C)C(=O)C/C=C\C(=C)CCNC(=O)OC)n1`, the IC50 in the series with PANC-1 was determined as 2000 nM.

Turning to `C=CC/C=C\Cc1csc(C(C)(C)C(O)CC2C=C(CCNC(=O)OC)CN(c3ccccc3)O2)n1` (single isomer, unassigned), the half-inhibitory concentration (IC50) in the series on PANC-1 was > 1000 nM.

In general, IC50 refers to the concentration that inhibits the measured activity by half.
